# In US20090325156A1, “MATERIALS AND METHODS FOR ABCB1 POLYMORPHIC VARIANT SCREENING, DIAGNOSIS, AND TREATMENT” (Government of the United States of America, as Represented …, priority 2005, published 2009):
# Like-named read-outs stand apart in the source and are kept apart here.
# Key:
# [1] = clinical; conditions: human, plasma, intravenous; for Vd: Vss, volume of distribution at steady-state
# [2] = tested on: patients with T-cell lymphoma; test: Baseline corrected QTc interval (ΔQTc) on ECG after FK228 (romidepsin) treatment, by ABCB1 genotype; format: in vivo, human
# Procedure: Complete blood cell counts with differential are obtained immediately prior to FK228 administration and on days 2, 9, and 16 to evaluate FK228-related myelosuppression. Multiple surface electrocardiograms (ECGs) are obtained immediately before FK228 administration, and at 4 hours after the start of FK228 administration, to evaluate the ability of FK228 to delay cardiac repolarization. This effect is manifested on the ECG as prolongation of the QT interval. The QT interval is transformed into the heart-rate independent corrected value known as the QTc interval. Prolongation of the QTc interval is the electrocardiographic finding associated with increased susceptibility to the development of cardiac arrythmias, including ventricular arrhythmias such as Torsade de Pointes. Because measurement of the baseline value is a factor that critically influences the observed variability in the mean QTc interval, values are computed as the mean of multiple ECGs to enhance the precision of the measurement. This computation is performed by collecting drug-free ECGs on three or more different days. The on-study time point for obtaining an ECG are selected to coincide with the maximum plasma concentration of FK228, as recommended in the preliminary FDA concept paper: The Clinical Evaluation Of Qt/Qtc Interval Prolongation And Proarrhythmic Potential For Non-Antiarrhythmic Drugs (Nov. 15, 2002) available at: http://www.fda.gov/ohrms/dockets/ac/03/briefing/pubs %5Cprelim.pdf.
# Relationships between various exposure measures, for example, plasma AUC, and hematological and cardiac toxicity are evaluated by sigmoid maximum-effect models. […] Hematological pharmacodynamics are evaluated by analysis of the absolute nadir values of platelet counts or the relative thrombocytopenia, that is, the percent decrease in platelet count. Data are fitted to a sigmoid maximum-effect model based on the modified Hill equation, as follows: E=E0+Emax×[(KP^γ)/(KP^γ+KP50^γ)]. In this equation, E0 is the minimum reduction possible, Emax is the maximum response (fixed to a value of 100), KP is the pharmacokinetic parameter of interest, KP50 the value of the pharmacokinetic parameter predicted to result in half of the maximum response, and γ is the Hill constant, which describes the sigmoidicity of the curve. Models are evaluated for goodness of fit by minimization of sums of the squared residuals and by reduction of the estimated coefficient of variation for fitted parameters. Significance of the relationships are assessed by construction of contingency tables with subsequent chi-squared analysis.
# All data are reported as median values with range, unless specified otherwise. Interindividual pharmacokinetic variability is calculated as the coefficient of variation, and expressed as a percentage. Genotype-frequency analysis of Hardy-Weinberg equilibrium is carried out using Clump version 1.9. The linkage between each pair of SNPs is determined in terms of the classical statistic D′. The absolute value for D′ (|D′|) of 1 denotes complete linkage disequilibrium, while a value of 0 denotes complete linkage equilibrium. The effects of the variant genotypes on ΔQTc, relative thrombocytopenia, dose-normalized AUC, apparent oral clearance, half-life, volume of distribution at steady-state are evaluated statistically with the nonparametric Kruskal-Wallis test. A post-hoc distribution-free multiple comparison procedure is performed using the Dunn test with Bonferroni correction to test pairs of median observations. All statistical analyses are performed using the NCSS software program (version 2001; NCSS, Kaysville, Utah). The a priori level of significance is set at 0.05.
# [3] = tested on: patients with T-cell lymphoma; test: Hematological toxicity: percentage decrease in platelet count versus FK228 AUC (sigmoid maximum effect model); format: in vivo, human; conditions: P<0.001, FIG. 1
# Procedure: Complete blood cell counts with differential are obtained immediately prior to FK228 administration and on days 2, 9, and 16 to evaluate FK228-related myelosuppression. Multiple surface electrocardiograms (ECGs) are obtained immediately before FK228 administration, and at 4 hours after the start of FK228 administration, to evaluate the ability of FK228 to delay cardiac repolarization. This effect is manifested on the ECG as prolongation of the QT interval. The QT interval is transformed into the heart-rate independent corrected value known as the QTc interval. […]
# Relationships between various exposure measures, for example, plasma AUC, and hematological and cardiac toxicity are evaluated by sigmoid maximum-effect models. […] Hematological pharmacodynamics are evaluated by analysis of the absolute nadir values of platelet counts or the relative thrombocytopenia, that is, the percent decrease in platelet count. […] Models are evaluated for goodness of fit by minimization of sums of the squared residuals and by reduction of the estimated coefficient of variation for fitted parameters. Significance of the relationships are assessed by construction of contingency tables with subsequent chi-squared analysis.
smiles,measurement,setting,value
"C/C=C1\NC(=O)[C@H]2CSSCC/C=C/[C@H](CC(=O)N[C@H](C(C)C)C(=O)N2)OC(=O)[C@H](C(C)C)NC1=O [FK228, (E)-(1S,4S,10S,21R)-7-[(Z)-ethylidene]-4,21-diisopropyl-2-oxa-12,13-dithia-5,8,20,23-tetraazabicyclo [8,7,6]-tricos-16-ene-3,6,19,22-pentanone]",clearance,"[1]; Clearance, All (N = 74), median",238 mL/min
same,clearance,"[1]; Clearance, Group 1 (N = 45), median",252 mL/min
same,clearance,"[1]; Clearance, Group 2 (N = 29), median",232 mL/min
same,clearance,"[1]; FK228 clearance, Example 1, all 42 patients combined, 4-hour infusion 14 or 18 mg/m^2, mean ± standard deviation",292 mL/min
same,half-life,"[1]; T1/2, half-life of the terminal phase, All (N = 74), median",6 h
same,half-life,"[1]; T1/2, half-life of the terminal phase, Group 1 (N = 45), median",6.8 h
same,half-life,"[1]; T1/2, half-life of the terminal phase, Group 2 (N = 29), median",3.8 h
same,Vd,"[1]; All (N = 74), median",93.6 L
same,Vd,"[1]; Group 1 (N = 45), median",129 L
same,Vd,"[1]; Group 2 (N = 29), median",64.9 L
same,half-life,"[1]; terminal half-life, Example 1, all 42 patients combined, 4-hour infusion 14 or 18 mg/m^2, mean ± standard deviation",7.23 ± 3 h
same,ΔQTc at four hours,"[2]; Example 1, ABCB1 2677GA genotype, n=1",17.8 ms
same,"ΔQTc at four hours, median","[2]; Example 1, ABCB1 2677GG genotype, n=10",18.3 ms
same,"ΔQTc at four hours, median","[2]; Example 1, ABCB1 2677GT genotype, n=14",16.5 ms
same,"ΔQTc at four hours, median","[2]; Example 1, ABCB1 2677T/T genotype, n=4",-5 ms
same,"ΔQTc at four hours, median","[2]; Example 1, carriers of the heterozygote diplotype (2677/3435), n=7",11.3 ms
same,"ΔQTc at four hours, median","[2]; Example 1, carriers of the homozygote diplotype (2677/3435), n=19",18.5 ms
same,"ΔQTc at four hours, median","[2]; Example 1, homozygous for the ABCB1 2677TT/3435TT diplotype, n=3",-5.0 ms
same,"ΔQTc at 4 hours, median","[2]; group 1, 0 reference alleles at both ABCB1 2677G>T/A and 3435C>T loci, N=4",-1 ms
same,"ΔQTc at 4 hours, median","[2]; group 1, no reference alleles at the ABCB1 2677G>T/A locus, N=6",-2.0 ms
same,"ΔQTc at 4 hours, median","[2]; group 1, one or more reference alleles at the ABCB1 2677G>T/A locus, N=32",18.2 ms
same,"ΔQTc at 4 hours, median","[2]; group 1, single reference allele at either ABCB1 2677G>T/A or 3435C>T locus, N=6",9.7 ms
same,"ΔQTc at 4 hours, median","[2]; group 1, two or more reference allele copy numbers at ABCB1 2677G>T/A and 3435C>T loci, N=28",18.5 ms
same,"ΔQTc at 4 hours, median","[2]; group 2, 0 or 1 reference alleles at ABCB1 2677G>T/A, N=14",4 ms
same,"ΔQTc at 4 hours, median","[2]; group 2, more than 1 reference allele at ABCB1 2677G>T/A, N=4",24.5 ms
same,association of AUC of FK228 with percentage decrease in platelet count,[3],weakly associated
same,"interindividual variability in drug clearance, percent coefficient of variation","Example 1, 42 patients",approximately 72%
same,"interindividual variability in drug clearance, percent coefficient of variation",Example 2,approximately 72%
